Measurements reported in ChEMBL document CHEMBL4334431, “Gramicidin S-inspired antimicrobial cyclodextrin to disrupt gram-negative and gram-positive bacterial membranes” (Medchemcomm, 2019).
In brackets after ≈: the same amount, converted by molar mass. Activity calls are given as the source filed them. The rule behind the calls is not given here. Square brackets hold non-standard residues; d marks the D form. Peptide text beside a SMILES is read from it. Orn = NCCC[C@H](N)C(=O)O

Assays:
Pseudomonas aeruginosa [1] = assay: Antibacterial activity against Pseudomonas aeruginosa PAO1 assessed as bacterial growth inhibition after 20 hrs by liquid microdilution method; type: functional
Escherichia coli [2] = assay: Antibacterial activity against Escherichia coli K12 W3110 assessed as bacterial growth inhibition after 20 hrs by liquid microdilution method; type: functional
Staphylococcus aureus [3] = assay: Antibacterial activity against Staphylococcus aureus FDA 209P assessed as bacterial growth inhibition after 20 hrs by liquid microdilution method; type: functional
[4] = Partition coefficient, log P of compound; type: physicochemical; conditions: octanol/water
[5] = Haemolytic activity in rabbit RBCs at 50 uM relative to control; type: ADME, cell-based, Oryctolagus cuniculus, Erythrocyte; conditions: rabbit red blood cells (erythrocytes), read-out: Activity
Salmonella typhimurium = assay: Antibacterial activity against Salmonella typhimurium LT2 assessed as bacterial growth inhibition after 20 hrs by liquid microdilution method; type: functional, Salmonella enterica subsp. enterica serovar Typhimurium; conditions: Salmonella enterica, LT2, 20 h
Bacillus subtilis = assay: Antibacterial activity against Bacillus subtilis 168 assessed as bacterial growth inhibition after 20 hrs by liquid microdilution method; type: functional; conditions: Bacillus subtilis, 168, 20 h
Pseudomonas aeruginosa [6] = assay: Antibacterial activity against carbapenem-reistant Pseudomonas aeruginosa PAO1 assessed as bacterial growth inhibition after 20 hrs by liquid microdilution method; type: functional; conditions: PAO1, 20 h
Escherichia coli [7] = assay: Antimicrobial activity against ESBL-producing Escherichia coli assessed as bacterial growth inhibition after 20 hrs by liquid microdilution method; type: functional
Escherichia coli [8] = assay: Induction of membrane permeabilization in Escherichia coli K12 W3110 assessed as decrease in cell viability; type: functional, organism-based
Escherichia coli [9] = assay: Antimicrobial activity against carbapenem-resistant Escherichia coli assessed as bacterial growth inhibition after 20 hrs by liquid microdilution method; type: functional
Staphylococcus aureus [10] = assay: Induction of membrane permeabilization in Staphylococcus aureus FDA 209P assessed as decrease in cell viability; type: functional, organism-based
Staphylococcus aureus [11] = assay: Induction of membrane permeabilization in Staphylococcus aureus FDA 209P assessed as increase in potassium efflux; type: functional, organism-based
Escherichia coli [12] = assay: Induction of membrane permeabilization in Escherichia coli K12 W3110 assessed as increase in potassium efflux; type: functional, organism-based
Staphylococcus aureus [13] = assay: Antibacterial activity against Staphylococcus aureus FDA 209P at sub-MIC treated over 2 serial passages by resistant development assay; type: functional
Staphylococcus aureus [14] = assay: Antibacterial activity against Staphylococcus aureus FDA 209P at sub-MIC treated over 4 serial passages by resistant development assay; type: functional
Escherichia coli [15] = assay: Antimicrobial activity against […] at sub-MIC treated by resistant development assay; type: functional; conditions: K-12 substr. W3110

COLISTIN
MIC (Pseudomonas aeruginosa [1]): 2 µM
MIC (Escherichia coli [2]; K-12 substr. W3110): 0.7 µM

CC(C)C[C@@H]1NC(=O)[C@H](CCCN)NC(=O)[C@H](C(C)C)NC(=O)[C@@H]2CCCN2C(=O)[C@@H](Cc2ccccc2)NC(=O)[C@H](CC(C)C)NC(=O)[C@H](CCCN)NC(=O)[C@H](C(C)C)NC(=O)[C@@H]2CCCN2C(=O)[C@@H](Cc2ccccc2)NC1=O (cyclo(V[Orn]L[dF]PV[Orn]L[dF]P))
MIC (Staphylococcus aureus [3]): 4 µM (≈ 4.57 µg/mL)
MIC (Escherichia coli [2]; K-12 substr. W3110, 20 h): 28 µM (≈ 32 µg/mL)

CC(C)CC(=O)O[C@@H]1[C@@H](OC(=O)CC(C)C)[C@H]2O[C@H]3[C@H](OC(=O)CC(C)C)[C@@H](OC(=O)CC(C)C)[C@@H](O[C@H]4[C@H](OC(=O)CC(C)C)[C@@H](OC(=O)CC(C)C)[C@@H](O[C@H]5[C@H](OC(=O)CC(C)C)[C@@H](OC(=O)CC(C)C)[C@@H](O[C@H]6[C@H](OC(=O)CC(C)C)[C@@H](OC(=O)CC(C)C)[C@@H](O[C@H]7[C@H](OC(=O)CC(C)C)[C@@H](OC(=O)CC(C)C)[C@@H](O[C@H]8[C@H](OC(=O)CC(C)C)[C@@H](OC(=O)CC(C)C)[C@@H](O[C@H]9[C@H](OC(=O)CC(C)C)[C@@H](OC(=O)CC(C)C)[C@@H](O[C@@H]1[C@@H](Cn1cc(CN)nn1)O2)O[C@@H]9Cn1cc(CN)nn1)O[C@@H]8Cn1cc(CN)nn1)O[C@@H]7Cn1cc(CN)nn1)O[C@@H]6Cn1cc(CN)nn1)O[C@@H]5Cn1cc(CN)nn1)O[C@@H]4Cn1cc(CN)nn1)O[C@@H]3Cn1cc(CN)nn1
MIC (Pseudomonas aeruginosa [1]; PAO1, 20 h): > 43 µM
logP [4]: 0.6
hemolysis at 50 µM [5]: 87%
MIC (Staphylococcus aureus [3]): > 31 µM
MIC (Escherichia coli [2]; K-12 substr. W3110, 20 h): > 31 µM
MIC (Salmonella typhimurium): > 43 µM
MIC (Bacillus subtilis): > 31 µM

CCC(=O)O[C@@H]1[C@@H](OC(=O)CC)[C@H]2O[C@H]3[C@H](OC(=O)CC)[C@@H](OC(=O)CC)[C@@H](O[C@H]4[C@H](OC(=O)CC)[C@@H](OC(=O)CC)[C@@H](O[C@H]5[C@H](OC(=O)CC)[C@@H](OC(=O)CC)[C@@H](O[C@H]6[C@H](OC(=O)CC)[C@@H](OC(=O)CC)[C@@H](O[C@H]7[C@H](OC(=O)CC)[C@@H](OC(=O)CC)[C@@H](O[C@H]8[C@H](OC(=O)CC)[C@@H](OC(=O)CC)[C@@H](O[C@H]9[C@H](OC(=O)CC)[C@@H](OC(=O)CC)[C@@H](O[C@@H]1[C@@H](Cn1cc(CN)nn1)O2)O[C@@H]9Cn1cc(CN)nn1)O[C@@H]8Cn1cc(CN)nn1)O[C@@H]7Cn1cc(CN)nn1)O[C@@H]6Cn1cc(CN)nn1)O[C@@H]5Cn1cc(CN)nn1)O[C@@H]4Cn1cc(CN)nn1)O[C@@H]3Cn1cc(CN)nn1
MIC (Pseudomonas aeruginosa [1]; PAO1, 20 h): 4 µM (≈ 11.3 µg/mL)
logP [4]: -0.89
MIC (Pseudomonas aeruginosa [6]): 9 µM (≈ 25.5 µg/mL)
MIC (Escherichia coli [7]): 4 µM (≈ 11.3 µg/mL)
hemolysis at 50 µM [5]: 17%
MIC (Staphylococcus aureus [3]): 9 µM (≈ 25.5 µg/mL)
MIC (Escherichia coli [2]; K-12 substr. W3110, 20 h): 4 µM (≈ 11.3 µg/mL)
Activity (Escherichia coli [8]): Active
MIC (Escherichia coli [9]): 9 µM (≈ 25.5 µg/mL)
Activity (Staphylococcus aureus [10]): Active
MIC (Salmonella typhimurium): 9 µM (≈ 25.5 µg/mL)
Activity (Staphylococcus aureus [11]): Active
MIC (Bacillus subtilis): 2 µM (≈ 5.67 µg/mL)
Activity (Escherichia coli [12]): Active

CCCC(=O)O[C@@H]1[C@@H](OC(=O)CCC)[C@H]2O[C@H]3[C@H](OC(=O)CCC)[C@@H](OC(=O)CCC)[C@@H](O[C@H]4[C@H](OC(=O)CCC)[C@@H](OC(=O)CCC)[C@@H](O[C@H]5[C@H](OC(=O)CCC)[C@@H](OC(=O)CCC)[C@@H](O[C@H]6[C@H](OC(=O)CCC)[C@@H](OC(=O)CCC)[C@@H](O[C@H]7[C@H](OC(=O)CCC)[C@@H](OC(=O)CCC)[C@@H](O[C@H]8[C@H](OC(=O)CCC)[C@@H](OC(=O)CCC)[C@@H](O[C@H]9[C@H](OC(=O)CCC)[C@@H](OC(=O)CCC)[C@@H](O[C@@H]1[C@@H](Cn1cc(CN)nn1)O2)O[C@@H]9Cn1cc(CN)nn1)O[C@@H]8Cn1cc(CN)nn1)O[C@@H]7Cn1cc(CN)nn1)O[C@@H]6Cn1cc(CN)nn1)O[C@@H]5Cn1cc(CN)nn1)O[C@@H]4Cn1cc(CN)nn1)O[C@@H]3Cn1cc(CN)nn1
MIC (Pseudomonas aeruginosa [1]; PAO1, 20 h): > 32 µM
logP [4]: -0.06
hemolysis at 50 µM [5]: 102%
MIC (Staphylococcus aureus [3]): > 32 µM
MIC (Escherichia coli [2]; K-12 substr. W3110, 20 h): > 32 µM
Activity (Escherichia coli [8]): Active
Activity (Staphylococcus aureus [10]): Active
MIC (Salmonella typhimurium): > 32 µM
Activity (Staphylococcus aureus [11]): Active
MIC (Bacillus subtilis): > 32 µM
Activity (Escherichia coli [12]): Active

C[C@@H]1O[C@@H]1P(=O)(O)O [FOSFOMYCIN]
MIC (Staphylococcus aureus [13]): 14 µM (≈ 1.93 µg/mL)
MIC (Staphylococcus aureus [14]): > 927 µM
MIC (Escherichia coli [15]): 58 to 927 µM (≈ 8.01 to 128 µg/mL)
